# Results from patent US20090029954A1, “PROGESTERONE-RECEPTOR ANTAGONIST FOR USE IN BRCA ALONE OR AS COMBINATION WITH ANTIESTROGEN” (priority 2007, published 2009).
# Read-outs that look alike come from different tables or passages of the source.
# How the values were obtained:
# [1] = tested on: MCF-10 mammary cells and T47D breast cancer cells with BRCA1 and BRCA2 knock down; assay: Growth of breast cells with siRNA BRCA1/BRCA2 knock down (Example 1); format: cell-based
# Method: (§1) MCF-10 mammary cells and T47D breast cancer cells obtained from ATCC were treated with siRNA knocking down the BRCA1 and BRCA2 gene.
# (§2) Cell growth in comparison to untransfected and mock transfected cells was compared. In a second step cells were stimulated either with progesterone and/or with estrogens. […] The effects on progesteron receptor protein expression were further investigated.
# progesterone receptor [2] = biological target: T1, progesterone receptor (Homo sapiens, UniProt P06401); assay: Progesterone receptor protein expression/stability after siRNA BRCA1 knock down (Example 1); format: cell-based
# T1 sequence (P06401 1-933): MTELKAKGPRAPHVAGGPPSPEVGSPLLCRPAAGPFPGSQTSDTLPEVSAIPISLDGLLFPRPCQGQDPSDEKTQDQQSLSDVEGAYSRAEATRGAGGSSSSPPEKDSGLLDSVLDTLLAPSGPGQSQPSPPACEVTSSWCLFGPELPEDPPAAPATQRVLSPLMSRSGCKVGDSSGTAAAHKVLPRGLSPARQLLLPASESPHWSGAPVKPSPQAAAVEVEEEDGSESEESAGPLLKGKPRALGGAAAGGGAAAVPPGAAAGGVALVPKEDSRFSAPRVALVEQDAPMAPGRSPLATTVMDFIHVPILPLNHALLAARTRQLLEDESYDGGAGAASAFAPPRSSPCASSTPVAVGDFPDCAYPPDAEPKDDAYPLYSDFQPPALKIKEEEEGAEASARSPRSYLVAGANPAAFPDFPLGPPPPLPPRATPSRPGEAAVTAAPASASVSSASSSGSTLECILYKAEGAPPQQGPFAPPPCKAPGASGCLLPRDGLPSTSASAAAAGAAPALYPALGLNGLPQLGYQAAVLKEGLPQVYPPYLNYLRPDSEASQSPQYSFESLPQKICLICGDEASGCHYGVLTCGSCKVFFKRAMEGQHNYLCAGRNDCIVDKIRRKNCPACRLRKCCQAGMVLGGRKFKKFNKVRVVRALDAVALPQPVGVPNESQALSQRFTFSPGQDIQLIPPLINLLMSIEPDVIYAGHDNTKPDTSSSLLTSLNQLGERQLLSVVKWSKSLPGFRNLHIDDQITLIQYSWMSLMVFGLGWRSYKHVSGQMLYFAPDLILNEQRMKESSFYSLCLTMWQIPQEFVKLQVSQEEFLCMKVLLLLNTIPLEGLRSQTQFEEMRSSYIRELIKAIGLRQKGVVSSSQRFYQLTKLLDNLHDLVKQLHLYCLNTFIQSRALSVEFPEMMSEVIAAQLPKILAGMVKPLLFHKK
# Method: as §1, §2
# [3] = tested on: BRCA1-, respectively BRCA2-mediated mammary carcinogenesis; assay: Mammary tumor formation in transgenic mice with breast-specific inactivation of p53 and BRCA1/BRCA2 (Example 2); format: in vivo; conditions: mice monitored weekly for tumor formation; placebo group median tumor latency 6.6 months
# From the text: To address the specific roles of progesterone receptors in BRCA1- and BRCA2-mediated tumorigenesis, transgenic mice with an organ specific inactivation of p53 and BRCA1, respectively BRCA2 in the breast tissue have been studied. Inactivation of both BRCA1, respectively BRCA2 and p53 or c-myc genes in the mouse mammary gland mimics the majority of human BRCA1-associated tumors, which also harbor p53 mutations.
# Because progesterone is a potent mitogen for BRCA1, respectively BRCA2 p53 or c-myc Crec mammary epithelial cells, it was tested whether blockade of the progesterone receptor activity by the progesterone receptor antagonist 11β-(4-acetylphenyl)-17β-hydroxy-17α-(1,1,2,2,2-pentafluoroethyl)-estra-4,9-dien-3-one could prevent or delay mammary carcinogenesis. Mice were treated with a placebo or with 11β-(4-acetylphenyl)-17β-hydroxy-17α-(1,1,2,2,2-pentafluoroethyl)-estra-4,9-dien-3-one. The mice were monitored weekly for tumor formation. The median tumor latency of was 6.6 months for the placebo control group with all mice developing palpable tumors.
# [4] = tested on: MCF-10 mammary cells with BRCA1 and BRCA2 knock down; assay: Growth of MCF-10 cells with siRNA BRCA1/BRCA2 knock down (Example 3); format: cell-based; conditions: co-treatment; MCF-10 siRNA knock down cells stimulated with progesterone and/or estrogens
# Method: (§3) MCF-10 mammary cells obtained from ATCC were treated with siRNA knocking down the BRCA1 and BRCA2 gene.
# as §2
# progesterone receptor [5] = biological target: T1, progesterone receptor; assay: Progesterone receptor protein expression/stability after siRNA BRCA1 knock down (Example 3); format: cell-based
# Method: as §3, §2
# progesterone receptor [6] = biological target: T1, progesterone receptor; assay: Endocrine profile of the progesterone-receptor antagonist
# tumor cells = assay: Apoptosis of tumor cells
# progesterone receptor [7] = biological target: T1, progesterone receptor; conditions: Fuhrmann et al., J. Med. Chem. 2000; cited from earlier work
# [8] = tested on: mammary tumors in Brca1/p53-deficient model; conditions: mice with BRCA1- or BRCA2 inactivated in mammary glands; Poole et al., Science 2006; cited from earlier work
# [9] = administered orally; cited from earlier work
# Bioavailability = format: in vivo; conditions: compared to ICI 182,780
compound,measurement,setting,value
"CC(=O)c1ccc(C2C[C@@]3(C)[C@@H](CC[C@@]3(O)C(F)(F)C(F)(F)F)[C@@H]3CCC4=CC(=O)CCC4=C23)cc1 (stereo partly drawn) [11β-(4-acetylphenyl)-17β-hydroxy-17α-(1,1,2,2,2-pentafluoroethyl)-estra-4,9-dien-3-one]",inhibition of the growth of BRCA1 knock down cells,[1]; Example 1,potent inhibition
same,antagonism of the effects of BRCA1 knock down (increased proliferation in the presence of progesterone),"[1]; co-treatment, siRNA knock down cells stimulated with progesterone and/or estrogens",able to antagonize the effects of BRCA1 knock down
same,increased stability of progesterone receptor after BRCA1 knock down,progesterone receptor [2],could be antagonized
same,palpable tumors,[3],no palpable tumors were detected
same,antagonism of the effects of BRCA1 knock down (increased proliferation in the presence of progesterone),[4],able to antagonize the effects of BRCA1 knock down
same,increased stability of progesterone receptor after BRCA1 knock down,progesterone receptor [5],could be antagonized
same,"endocrine side effects (androgen, estrogen or antiglucocorticoid activity)",progesterone receptor [6],only very weak or no endocrine side effects
same,apoptosis of tumor cells,tumor cells,increased apoptosis of tumor cells
same,antiprogestagenic activity,progesterone receptor [7],high antiprogestagenic activity
same,other endocrinological effects,progesterone receptor [7],little or no other endocrinological effects
CC#C[C@]1(O)CC[C@H]2[C@@H]3CCC4=CC(=O)CCC4=C3[C@@H](c3ccc(N(C)C)cc3)C[C@@]21C [mifepristone],development of mammary tumors,[8],blocks the development of mammary tumors
same,bioavailability,[9],poor bioavailability
"CN(CCCCCCCC(F)(F)C(F)(F)F)CCCCCC1Cc2cc(O)ccc2C2C(F)CC3(C)C(CCC3(C)O)C12 (stereo not drawn) [11β-Fluoro-17α-methyl-7α-{5-[methyl(8,8,9,9,9-pentafluorononyl)-amino]pentyl}-estra-1,3,5(10)-triene-3,17β-diol]",bioavailability,Bioavailability,particularly high bioavailability
